{"source": "paper PMC3966878", "about": "“Crystal Structure of ORF210 from E. coli O157:H1 Phage CBA120 (TSP1), a Putative Tailspike Protein” (PLoS ONE, 2014)", "molecules": {"B1": {"name": "TSP1 (tailspike protein 1, ORF210) from bacteriophage CBA120, wild-type, with C-terminal 6X-His tag (natural protein, bacteriophage CBA120 (vB_EcoM_CBA120), UniProt G3M189 1-770, looked up)", "chain": "MNEMFSQGGKGSTGILTNKQAVARHFGVKQSEVVYFSVGVDLGGYKVIYDKETQRAYSLPVGIASGTTAVSLSTAAVLVHSAGSVDLGSLAVSREEYVTLPGSFDSGSTLNVKNELLTYTDGKYRWDGILPKTVAPGSTPASTGGVGLGAWISVGDASLRTQLANGDGSLIGIHPQGTLNNVLTVRTPEQYNAVGDGIADDTSKLKEMLSDINNVPETLPDAAAVNSYMEQVAVKIDLTKLYRFTETLYIPPGVSIEIPTSNFFTRECKQGLFYDPVDKNTAAISLMVYRKQPDGSYKLNKDVDYYPTGLDIDNGDAITCARKIDINNLNLITAPGVKVGVKWIGGAGCTTKGLSIGENTGSDITTARLPRVGLLQSASWGSIHENLRILYKTQGAVFIDSNGGAAVNNAYISRLGNTNGELEQAVYKPAGFTEVGDVAVTQFAGSEVKFNSPIIEQASFDFVHAGRDTDSYGLFMVDKPHIESSGGKKKHSFYLINTSSNVTLSGVGLSGQDPDLDSMYFLKNCPETARNVVRGQMPISGVKLVRGTGNYPTLVLDCTNMGSQFQFGEVGDIFYIKDVVGVKADTLYIDPVNGNNYNWGTNGTKPIRELTNIAKICQLFRCKSVYLNAGESVITSNTELPMVVFEGPGSLKANSGSSFLIKAGGTLSLIGLSGISTDGGHMFRVSTVEKVNIHTNCSVNAGAAYVVLSEVQGNIEYRQLFYSVNCSKYIGATAGQTIAGIMVKTATRPTGIDAAPVDGNVSLTYKIIES", "notes": "Tailspike protein 1 (TSP1), open reading frame 210 (tsp1) of the phage CBA120 genome, codon-optimised synthetic gene; the encoded 770 amino acid residues followed by six histidines; A construct with an N-terminal 6X-His tag was dropped; the C-terminal tag construct was used for all experiments; also called CBA120 TSP1; wild-type TSP1; source: E. coli BL21 (pBAD24, arabinose induction), purified …"}, "B2": {"name": "Selenomethionine derivative of TSP1 (ORF210) from bacteriophage CBA120, with C-terminal 6X-His tag (natural protein, bacteriophage CBA120 (vB_EcoM_CBA120), UniProt G3M189 1-770, looked up)", "chain": "B1 chain", "modifications": "selenomethionine in place of methionine", "notes": "Tailspike protein 1 (TSP1), open reading frame 210 (tsp1) of the phage CBA120 genome, same plasmid pBAD24::tsp1 as m1; the encoded 770 amino acid residues followed by six histidines; also called Se-Met TSP1; SeMet TSP1; source: E. coli B834 (methionine auxotroph, SelenoMet media with 40 mg/L selenomethionine), purified as the wild type; not shown: His6, C-terminal, kept"}}, "key": {"[1]": {"target": "T1, TSP1 (ORF210) from CBA120 phage (Escherichia phage Cba120, UniProt G3M189)", "T1 construct": "full length, 770 residues plus C-terminal 6xHis tag; codon-optimized gene expressed in E. coli BL21; homotrimer, 82 kDa monomer; one Zn2+ per trimer", "T1 sequence (G3M189 1-770)": "B1 chain", "assay": "X-ray crystal structure (soak), […] Å", "assay_type": "binding", "conditions": "crystal soak in mother liquor with 37% saturated sugar, Tris-HCl pH 7.0-7.6"}, "[2]": {"target": "T1, TSP1 (ORF210) from CBA120 phage", "assay": "X-ray crystal structure (soak), […] Å", "assay_type": "binding", "conditions": "crystal soak in mother liquor with 37% saturated sugar, Tris-HCl pH 7.0-7.6; site on the surface of D3, single subunit (Tyr306, Tyr427, Phe443, Ala430)"}, "[3]": {"target": "the molecule itself", "assay": "SEC; analytical gel filtration, Superose 6, 100 ug TSP1, isocratic in PBS; mass from a standard curve of gel filtration standards"}, "[4]": {"target": "the molecule itself", "assay": "crystal structure; hanging drop, 0.1 M Tris-HCl pH 7.0-7.6, 16% PEG 1000, room temperature; space group P212121; MAD phasing on Se-Met crystal; 1.8 A"}}}
{"molecule": "OC[C@H]1O[C@@H](O)[C@H](O)[C@@H](O)[C@@H]1O", "note": "[glucose]", "values": [{"measurement": "X-ray crystal structure (soak), 2.0 Å", "setting": "[1]; site in D3-D4 hole next to D4, single subunit (Glu639, Lys662, Lys615)", "result": "4OJL for TSP1/glucose complex"}]}
{"molecule": "OC[C@H]1O[C@H](O[C@H]2[C@H](O)[C@@H](O)[C@@H](O)O[C@@H]2CO)[C@H](O)[C@@H](O)[C@@H]1O", "note": "[α-maltose]", "values": [{"measurement": "X-ray crystal structure (soak), 1.95 Å", "setting": "[2]", "result": "4OJP for TSP1/maltose complex"}]}
{"molecule": "OC[C@H]1O[C@@H](O[C@H]2[C@H](O)[C@@H](O)[C@@H](O)O[C@@H]2CO)[C@H](O)[C@@H](O)[C@H]1O", "note": "[α-lactose]", "values": [{"measurement": "X-ray crystal structure (soak), 2.0 Å", "setting": "[1]; site deep in D3-D4 hole between two subunits (Val579, Lys577, Asp585)", "result": "4OJO for TSP1/lactose complex"}]}
{"molecule": "B1", "values": [{"measurement": "stoichiometry N", "setting": "[3]", "result": 3}]}
{"molecule": "B2", "values": [{"measurement": "stoichiometry N", "setting": "[4]", "result": 3}]}
